# Measurements reported in patent US11058635B1, “Oral administration of 5-FU in a gelling nanosuspension for targeted delivery to treat colorectal cancers” (King Abdulaziz University, priority 2020, dated 2021).
# Experiment: In vitro drug release, pH-profile dialysis bag method
# Assay type: physicochemical
# Settings: for overall pH-profile percentage release more than NAH-CRG-FU by: difference over 8 hrs
# Description: The ultimate goals were to develop a formula with in-soluble gel forming ability in the gastric media with good coherence, to form a sedimented gel with a density >1 in the stomach, to increase the gastric emptying rate and to avoid the gastric adverse effects and metabolism of FU by keeping a minimal gastric release or coating it. On other hand, the formula needed to dissolve and release the drug and gel in the simulated intestinal media, especially the colonic area. The main target was to design a system that was able to inhibit release of the drug in the stomach (i.e., release at a lower rate than the release rate in the intestinal-colonic area). Formulation was prepared according to Table 2 and the pattern of 5-FU release in the pH-profile differed from that of free 5-FU. After preparation of different formulations with manipulation of NA amounts (18, 36 and 72 mg/mL) and CRG types (CRGk and CRGL), the drug release optimization confirmed that the optimum formulation with respect to FU release curve and parameters was the NAH-CRG-FU shown in Table 2 and FIG. 6. […] The comparisons between the release patterns of the NAH-CRG-FU formulation and free drug were done using the simulated gastric release percentage (%)-first 2 hrs, simulated intestinal-colonic release percentage-subsequent 6 hrs (summation of the proximal, distal intestine and colon percentage simulated release patterns), mean dissolution time (MDT) of simulated pre-intestinal region (gastric) and simulated intestine-colonic area. Furthermore, mean dissolution times for 1st 2 hrs of pre-intestinal (Pre-intestinal MDT) and from the 2nd to 8th hr of the release profile (Intestinal-colonic MDT) were obtained by the following equation (Bani-Jaber and Abdullah 2020, Costa and Lobo 2001).
# [formula] wherein (i) expressed the release sample numbers, (n) referred to the number of release times, (t) was the mid-point time in the interval (ti-1-ti), (ΔM) was the released amount of drug in the interval (ti-1-ti). The MDT larger values could indicate a slower drug release rate. The predicted rate of release equates to the rate of dissolution, and this rate has a direct effect on the number of daily oral doses and any adverse effects associated therewith.
# 5-FU was prepared in a formulation of the NAH-CGR-FU gelling nanosuspension, as described in the previous Examples. Data from Table 2 was used to prepare a nanosuspension volume of 20 mL. The dose was loaded into a dialysis bag having a cut-off of 12000-14000 Dalton (Spectra/Por® 4-Dialysis membrane, USA). The dialysis bag was placed into a beaker containing 300 mL of release media. The bags were exposed to 0.1N HCl to simulate gastric media having a pH 1.2 for 2 hr, followed by simulated proximal intestine media, which was a phosphate buffer with pH 6.5 for 2 hr. This was followed by media simulating the media of the distal area of the small intestine, which was a phosphate buffer at a pH 6.8 for 2 hr. Finally, the dialysis bags were transferred to a phosphate buffer media having a pH 8 to simulate the media of a descending colon for 2 hrs. The sequential exposure in the different pH media was used to construct a pH dissolution profile. The temperature was constantly controlled at 37±0.5° C. in a water bath shaker of 75 rpm speed. To maintain sink conditions, the dissolution media underwent total replacement with a fresh medium every hour. After drug release optimization of the NA amount and CRG type was determined, the optimum formulation in-soluble gel that was formed in the acidic media was evaluated for the onset of formation and the extent of sedimentation.
structure (smiles),measurement,setting,value
"O=c1[nH]cc(F)c(=O)[nH]1 [Free 5-FU, 5-fluorouracil]",Gastric % Release,"0.1N HCl pH 1.2, first 2 hr, 37 C, 75 rpm",56.60 ± 0.0051%
same,higher gastric percentage release than NAH-CRG-FU by,"difference free 5-FU minus NAH-CRG-FU, first 2 hrs",31.55%
same,higher intestinal-colonic percentage release than NAH-CRG-FU by,"difference free 5-FU minus NAH-CRG-FU, subsequent 6 hrs",30.68%
same,overall pH-profile percentage release more than NAH-CRG-FU by,listed as 5-FU alone,62.23%
same,overall pH-profile percentage release more than NAH-CRG-FU by,listed as 5-FU free,62.2%
same,Pre-Intestinal MDT,"mean dissolution time, 1st 2 hrs, pH 1.2, n = 3 ± SD",0.23 ± 0.0011 h
same,Intestinal-Colonic MDT,"mean dissolution time, 2nd to 8th hr, pH 6.5, 6.8, 8, n = 3 ± SD",1.75 ± 0.0051 h
same,released after 8 hrs of the pH-profile study,"pH-profile 1.2-8, 8 hrs",95.97%
same,Proximal Intestine % Release,"phosphate buffer pH 6.5, 2 hr",23.04 ± 0.0022%
same,Distal Intestine % Release,"phosphate buffer pH 6.8, 2 hr",9.08 ± 0.0019%
same,Colon % Release,"phosphate buffer pH 8, 2 hr",7.26 ± 0.0014%
same,Intestinal-Colonic % Release,"subsequent 6 hrs, summation of proximal, distal intestine and colon",39.37 ± 0.0071%
